Laboratory results taken from US11447472B2, “Polymorophs of 5-aza-4′-thio-2′-deoxycytidine” (Southern Research Institute, priority 2020, dated 2022).
Like-named read-outs stand apart in the source and are kept apart here. One block for each compound: values may come before it.

Columns and labels:
[1] = Physical stability of solid forms under accelerated aging conditions (AAC, 25° C./60% RH, two days), HT-XRPD; conditions: for AAC (form found after storage): Table 4, storage at 25° C., 60% relative humidity; for conversion after storage at 25° C., 60% relative humidity: two days
Experimental: All solids were exposed to accelerated aging conditions (2 days at 25° C./60% RH) and re-analyzed by HT-XRPD.
Subsequently, the solids were placed at 25° C./60% RH for two days (AAC) and re-analyzed by XRPD.
Subsequently, all solids were exposed to accelerated aging conditions for two days (AAC, 25° C./60% RH) and re-analyzed by HT-XRPD.
Subsequently, all the solids were exposed to accelerated aging conditions (25° C./60% RH) for two days and re-analyzed by HT-XRPD.
All solids were then exposed to accelerated aging conditions (2 days at 25° C./60% RH) followed by HT-XRPD re-analysis.
Subsequently, all solids were exposed to accelerated aging conditions (2 days at 25° C./60% RH) and re-analyzed by HT-XRPD.
Subsequently, all solids were exposed to accelerated aging conditions (25° C./60% RH) for two days and then re-analyzed by HT-XRPD.

[2] = Dissolution rate (IDR) at pH 1.2, 6.5 and 5.0; assay type: physicochemical
[3] = in vivo, 2 mg/kg
[4] = in vivo; conditions: male, SD, rat, 2 mg/kg; for concentration at 0.25 h / concentration at 0.5 h / concentration at 1 h / concentration at 2 h / concentration at 4 h / concentration at 6 h / concentration at 8 h / concentration at 24 h: Concentration (plasma); for AUC(0-inf) / AUC(0-t) / Cmax / MRT inf / half-life / Tmax: po; for AUC(0-inf): AUCInf; for AUC(0-t): AUClast; for MRT inf: MRTInf_obs

Compound: Nc1ncn([C@H]2C[C@H](O)[C@@H](CO)S2)c(=O)n1 [A + D2, 5-Aza-4′-thio-2′-deoxycytidine]
AAC (form found after storage) ([1]; sample obtained by ECP from MeOH): A + L

Compound: Nc1ncn([C@H]2C[C@H](O)[C@@H](CO)S2)c(=O)n1 [Form B, 5-Aza-4′-thio-2′-deoxycytidine]
physical stability ([1]; in words): physically unstable
conversion after storage at 25° C., 60% relative humidity ([1]; text): converted to Form A
conversion after storage at 25° C., 60% relative humidity ([1]; text, listed as B): convert to Form A

Compound: Nc1ncn([C@H]2C[C@H](O)[C@@H](CO)S2)c(=O)n1 [Form C2, 5-Aza-4′-thio-2′-deoxycytidine]
conversion after storage at 25° C., 60% relative humidity ([1]; text, listed as C2): convert to Form A

Compound: Nc1ncn([C@H]2C[C@H](O)[C@@H](CO)S2)c(=O)n1 [Form E, 5-Aza-4′-thio-2′-deoxycytidine]
AAC (form found after storage) ([1]; sample obtained by ECP from DMA/TBME (80/20, v/v)): A + F
conversion after storage at 25° C., 60% relative humidity ([1]; text): converts to Form A
conversion after storage at 25° C., 60% relative humidity ([1]; text, listed as E): convert to Form A

Compound: Nc1ncn([C@H]2C[C@H](O)[C@@H](CO)S2)c(=O)n1 [Form F, 5-Aza-4′-thio-2′-deoxycytidine]
IDR ([2]; FaSSIF, pH 6.5): 2.7 ± 0.05 mg/mL/Cm^2/min
IDR ([2]; FeSSIF, pH 5.0): 6.0 ± 0.70 mg/mL/Cm^2/min
IDR ([2]; SGF, pH 1.2): 7.0 ± 1.26 mg/mL/Cm^2/min
Concentration (plasma), individual rat ([3]; male, SD, 0.25 h): 394 ng/mL
Concentration (plasma), individual rat ([3]; male, SD, 0.5 h): 780 ng/mL
Concentration (plasma), individual rat ([3]; male, SD, 1 h): 982 ng/mL
Concentration (plasma), individual rat ([3]; male, SD, 2 h): 764 ng/mL
Concentration (plasma), individual rat ([3]; male, SD, 4 h): 377 ng/mL
Concentration (plasma), individual rat ([3]; male, SD, 6 h): 285 ng/mL
Concentration (plasma), individual rat ([3]; male, SD, 8 h): 199 ng/mL
Concentration (plasma), individual rat ([3]; male, SD, 24 h): 3.81 ng/mL
AUCInf, individual rat ([3]; male, SD, po): 5435 ng·h/mL
AUClast, individual rat ([3]; male, SD, po): 5419 ng·h/mL
Cmax, individual rat ([3]; male, SD, po): 982 ng/mL
MRTInf_obs, individual rat ([3]; male, SD, po): 4.63 h
T1/2, individual rat ([3]; male, SD, po): 2.86 h
AUC values higher than SM ([3]; male, SD, rat): about 30%
AUC_%Extrap_obs, Mean ([3]; male, SD, rat): 0.402%
AUClast/D, Mean ([3]; male, SD, rat): 2900 ng·h/mL per mg/kg
Cmax value relative to SM ([3]; rat): about 1.4 times
concentration at 0.25 h ([4]; Mean): 310 ng/mL
concentration at 0.5 h ([4]; Mean): 768 ng/mL
concentration at 1 h ([4]; Mean): 934 ng/mL
concentration at 2 h ([4]; Mean): 755 ng/mL
concentration at 4 h ([4]; Mean): 457 ng/mL
concentration at 6 h ([4]; Mean): 324 ng/mL
concentration at 8 h ([4]; Mean): 222 ng/mL
concentration at 24 h ([4]; Mean): 5.43 ng/mL
concentration at 0.25 h ([4]; individual rat): 225 ng/mL
concentration at 0.5 h ([4]; individual rat): 755 ng/mL
concentration at 1 h ([4]; individual rat): 886 ng/mL
concentration at 2 h ([4]; individual rat): 746 ng/mL
concentration at 4 h ([4]; individual rat): 536 ng/mL
concentration at 6 h ([4]; individual rat): 362 ng/mL
concentration at 8 h ([4]; individual rat): 245 ng/mL
concentration at 24 h ([4]; individual rat): 7.04 ng/mL
AUC(0-inf) ([4]; Mean): 5820 ng·h/mL
AUC(0-inf) ([4]; individual rat): 6210 ng·h/mL
AUC(0-t) ([4]; Mean): 5800 ng·h/mL
AUC(0-t) ([4]; individual rat): 6180 ng·h/mL
Cmax ([4]; Mean): 934 ng/mL
Cmax ([4]; individual rat): 886 ng/mL
MRT inf ([4]; Mean): 4.86 h
MRT inf ([4]; individual rat): 5.09 h
half-life ([4]; T1/2, Mean): 3 h
half-life ([4]; T1/2, individual rat): 3.15 h
Tmax ([4]; Mean): 1 h
Tmax ([4]; individual rat): 1 h

Compound: Nc1ncn([C@H]2C[C@H](O)[C@@H](CO)S2)c(=O)n1 [Form H, 5-Aza-4′-thio-2′-deoxycytidine]
AAC (form found after storage) ([1]; sample from the method/solvent of that table row): F + H
conversion after storage at 25° C., 60% relative humidity [1]: convert to Form A
conversion of the form ([1]; when obtained from NMP): converted to Form F
conversion of the form ([1]; when obtained from other solvents): converted to Form A

Compound: Nc1ncn([C@H]2C[C@H](O)[C@@H](CO)S2)c(=O)n1 [Form I, 5-Aza-4′-thio-2′-deoxycytidine]
conversion after storage at 25° C., 60% relative humidity ([1]; text): converts to Form A
conversion after storage at 25° C., 60% relative humidity ([1]; text, listed as I): convert to Form A

Compound: Nc1ncn([C@H]2C[C@H](O)[C@@H](CO)S2)c(=O)n1 [Form J, 5-Aza-4′-thio-2′-deoxycytidine]
conversion after storage at 25° C., 60% relative humidity ([1]; text): converts to Form A
conversion after storage at 25° C., 60% relative humidity ([1]; text, listed as J): convert to Form A

Compound: Nc1ncn([C@H]2C[C@H](O)[C@@H](CO)S2)c(=O)n1 [Form K, 5-Aza-4′-thio-2′-deoxycytidine]
conversion after storage at 25° C., 60% relative humidity ([1]; text): converted to Form F
conversion after storage at 25° C., 60% relative humidity ([1]; text, listed as K): convert to Form A

Now from value to compound:

conversion after storage at 25° C., 60% relative humidity ([1]; text, listed as D2): convert to Form A
Compound: Nc1ncn([C@H]2C[C@H](O)[C@@H](CO)S2)c(=O)n1 [Form D2, 5-Aza-4′-thio-2′-deoxycytidine]

conversion after storage at 25° C., 60% relative humidity ([1]; text): convert to Form A
conversion after storage at 25° C., 60% relative humidity ([1]; text, listed as G1): convert to Form A
Compound: Nc1ncn([C@H]2C[C@H](O)[C@@H](CO)S2)c(=O)n1 [Form G1, 5-Aza-4′-thio-2′-deoxycytidine]

conversion after storage at 25° C., 60% relative humidity ([1]; text): convert to Form A
conversion after storage at 25° C., 60% relative humidity ([1]; text, listed as G2): convert to Form A
Compound: Nc1ncn([C@H]2C[C@H](O)[C@@H](CO)S2)c(=O)n1 [Form G2, 5-Aza-4′-thio-2′-deoxycytidine]
